Reference: patent publication EP4800018A1, “PAN-KRAS INHIBITOR AND USE THEREOF IN MEDICINES” (Betta Pharmaceuticals Co., Ltd., priority 2023, dated 2025)
Like-named read-outs stand apart in the source and are kept apart here.

Legend:
[1] = target: T1, KRAS G12V-cRAF (Homo sapiens, UniProt P01116, G12V); assay: Cellular KRAS G12V-cRAF Binding Inhibition Assay (NanoBRET, AD293 stable cells); type: cell-based; conditions: 3 h incubation, read-out: NanoBRET KRAS G12V
T1 construct: expressed in transfected cells
Procedure, shortened: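 Live AD293 stable cells, NanoLuc donor with HaloTag NanoBRET 618 ligand acceptor added overnight. Inhibition percent from luminescence relative to max signal and medium blank; IC50 from curve fitting.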

[2] = target: T2, KRAS G12D-cRAF (Homo sapiens, UniProt P01116, G12D); assay: Cellular KRAS G12D-cRAF Binding Inhibition Assay (NanoBRET, AD293 stable cells); type: cell-based; conditions: 3 h incubation, read-out: NanoBRET KRAS G12D
T2 construct: expressed in transfected cells
Procedure, shortened: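 AD293 cells stably expressing KRAS G12D-NanoLuc and cRAF RBD-HaloTag were seeded at 1×10^4 cells/well with NanoBRET 618 ligand overnight. BRET signal was converted to % inhibition of binding relative to max and blank wells, and IC50 came from curve fitting.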

[3] = test system: KRAS-G12D mutant tumor cells AGS; assay: Cell Proliferation Inhibition Assay (AGS), Cell-titer GLO, 96 h; type: cell-based; conditions: AGS cells, 96 h incubation, Cell-titer GLO, read-out: AGS(G12D)
Procedure, shortened: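 AGS cells (KRAS-G12D) grown in low-attachment plates were exposed to compound for 96 h at 37°C. Viability was read by CellTiter-Glo luminescence and converted to % inhibition against max and blank wells. IC50 came from curve fitting.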

[4] = test system: KRAS-G12V mutant tumor cells SW620; assay: Cell Proliferation Inhibition Assay (SW620), Cell-titer GLO, 96 h; type: cell-based; conditions: SW620 cells, 96 h incubation, Cell-titer GLO, read-out: SW620(G12V)
Procedure, shortened: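 SW620 cells (1×10^3/well, low-attachment) were exposed to compound from 10000 to 0.03 nM (0.5% DMSO) for 96 h at 37°C. Viability was read by Cell-titer GLO luminescence. Inhibition was calculated relative to DMSO and blank wells, and IC50 obtained by curve fitting.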

[5] = PK Study of Compounds in Rats; type: in vivo, Male SD rats; conditions: mean
Protocol: The test compound was mixed with the vehicle (10% DMSO/5% Solutol/85% physiological saline), vortexed and sonicated to prepare a clear 0.5 mg/mL intravenous injection solution. The test compound was mixed with the vehicle (20% PEG400/10% Solutol/70% pH 4.5 acetate buffer), vortexed and sonicated to prepare a clear 1 mg/mL oral solution. Male SD rats aged 6 to 7 weeks were selected and administered the test compound via intravenous (IV) and oral (PO) routes, respectively. Whole blood samples were collected at 5 min, 15 min, 30 min, 1 h, 2 h, 4 h, 7 h, and 24 h for the intravenous route, and at 15 min, 30 min, 1 h, 2 h, 4 h, 7 h, and 24 h for the oral route. Drug concentrations were analyzed by LC-MS/MS method, and pharmacokinetic parameters were calculated using Phoenix WinNonlin software (Pharsight, USA).

Compound	IC50 [1] [nM]	IC50 [2] [nM]	IC50 ([3]; Homo sapiens, AGS, 96 h) [nM]	IC50 ([4]; Homo sapiens, SW-620, 96 h) [nM]	IC50 [3] [nM]	IC50 [4] [nM]	AUC(0-t) ([5]; IV 1 mg/kg (n=3)) [ng·h/mL]	CL ([5]; IV 1 mg/kg (n=3)) [mL/min/kg]	T1/2 ([5]; IV 1 mg/kg (n=3)) [h]	Vss ([5]; IV 1 mg/kg (n=3)) [L/kg]	AUC(0-t) ([5]; PO 10 mg/kg (n=3)) [ng·h/mL]	Tmax ([5]; PO 10 mg/kg (n=3)) [h]	F ([5]; PO 10 mg/kg vs IV 1 mg/kg (n=3))
CC1OCCCn2c(c3c4cc(ccc42)-c2csc(n2)CC(NC(=O)C2C(C)C2C)C(=O)N2CCCC(N2)C(=O)OCC(C)(C)C3)-c2cc(CN3CCN(C)CC3)cnc21 [Example 193, (1r,2R,3S)-2,3-dimethyl-N-((1^5S,6^3S,4S,Z)-1^5,10,10-trimethyl-1^2-((4-methylpiperazin-1-yl)methyl)-5,7-dioxo-1^8,1^9,6^1,6^2,6^3,6^4,6^5,6^6-octahydro-1^5H,1^7H-8-oxa-1(13,15)-pyrido[3',2':7,8][1,5]oxazonino[5,6-a]indola-2(4,2)-thiazola-6(1,3)-pyridazinacycloundecaphane-4-yl)cyclopropane-1-car boxamide]	27.1	1.2	0.9	0.2									
CCN1CCN(c2cnc3c(c2)-c2c4c5cc(ccc5n2CCCOC3C)-c2coc(n2)CC(NC(=O)C2C(C)C2C)C(=O)N2NC(C(=O)OCC(C)(C)C4)C3CC2C3)CC1 [Example 197, (1r,2R,3S)-N-((1^5S,6^4S,4S,Z)-1^2-(4-ethylpiperazin-1-yl)-1^5,10,10-trimethyl-5,7-dioxo-1^8,1^9-dihydro-1^5H,1^7H-8-oxa-6^2,6^3-diaza-1(13,15)-pyrido[3',2':7,8][1,5]oxazonino[5,6-a]indola-2(4,2)-oxazola-6(2,4)-bicyclo[3.1.1]heptanacycloundecaphane-4-yl)-2,3-dimethylcyclopropane-1-carboxamide]	2	0.3	0.03	0.01									
(1S,2S)-2-(difluoromethyl)-N-((1^5S,6^3S,4S,Z)-1^5,10,10-trimethyl-1^2-(6-methyl-3,6-diazabicyclo[ 3.1.1]heptan-3-yl)-5,7-dioxo-1^8,1^9,6^1,6^2,6^3,6^4,6^5,6^6-octahydro-1^5H,1^7H-8-oxa-1(13,15)-pyrido[3', 2':7,8][1,5]oxazonino[5,6-a]indola-2(4,2)-thiazola-6(1,3)-pyridazinacycloundecaphane-4-yl)cycl opropane-1-carboxamide [Example 150]	8.1	1.61			0.93	0.16							
(1S,2S)-2-(difluoromethyl)-N-((1^5S,6^4S,4S,Z)-1^5,10,10-trimethyl-1^2-(4-methylpiperazin-1-yl)-5, 7-dioxo-1^8,1^9-dihydro-1^5H,1^7H-8-oxa-6^2,6^3-diaza-1(13,15)-pyrido[3',2':7,8][1,5]oxazonino[5,6-a ]indola-2(4,2)-thiazola-6(2,4)-bicyclo[3.1.1]heptanacycloundecaphane-4-yl)cyclopropane-1-carb oxamide [Example 184]					0.9	0.65	5558	2.56	9.07	1.71	10910	3.33	19.6
